According to US12459900B2, “Compounds for treating conditions related to oxidative stress” (priority 2021, dated 2025):

Experiments:
[1] = DPPH antioxidant (free radical scavenging) assay; type: biochemical; conditions: duplicate, 5 concentrations, read at 517 nm; read-out: IC50 (DPPH assay, anti-oxidant activity)
Experimental: NWD-19, NWD-15, and NWD-14 were evaluated for antioxidant activity using the 2,2-diphenyl-1-picrylhydrazyl (DPPH) assay. The DPPH assay was used to predict antioxidant activities by mechanism in which antioxidants act to inhibit lipid oxidation, so scavenging of DPPH radical and therefore determinate free radical scavenging capacity. The DPPH antioxidant assay kit (Dokindo Molecular Technologies, Inc.) was used, and the plates were read at 517 nm on the BioTek Synergy HT plate reader (Gen5 software). All compounds were tested in duplicate at 5 concentrations to determine the anti-oxidant activity of each compound.

[2] = tested on: Benzalkonium chloride induced dry eyes; assay: Benzalkonium chloride induced dry eyes in C57BL/6 mice; type: in vivo; conditions: daily topical drops 10 μM from day 8 to day 21 of 0.2% BAC treatment
Experimental: Benzalkonium chloride (BAC) is a commonly used preservative in ophthalmic solutions. However, it has been reported to increase the risk of dry eye disease due to its toxicity on the ocular surface, the conjunctiva, the cornea and even deeper ocular structures. 5 uL 0.2% BAC in mice eyes has been reported to cause dry eye symptoms without affecting aqueous tear production, inflammation, or corneal smoothness (Richard Zhang, et al. Dose-dependent benzalkonium chloride toxicity imparts ocular surface epithelial changes with features of dry eye disease, The Ocular Surface, Volume 18, Issue 1, 2020, Pages 158-169).
Symptoms of dry eye disease were induced in 24 male and female C57/BL6 mice for 21 days using 0.2% daily eye drops of BAC. Daily topical application of NWD-19 at 10 μM concentration started at day 8 post BAC treatment and continued until day 21, whereas the control mice eyes were treated with PBS during this period. […] At pre-dose and subsequently on days 7, 14 and 21 post dose the mice eyes were examined by a veterinary ophthalmologist for corneal lesions and dry eye was also evaluated using a drop of 0.1% fluorescein solution in each treated eye and observation and scoring using a cobalt blue filter. […]

RPE primary cells = assay: TBARS assay in RPE primary cells after AAPH induced oxidative stress; type: cell-based; conditions: AAPH 10 mM, activity up to 0.078 μM concentration
Experimental: Primary retinal pigment endothelial cell line (RPE) were plated in appropriate growth medium in a 96 well plate overnight (16-24 hrs). Cells were then treated with NWD-19 at 7 concentrations and incubated overnight. Following incubation all wells were treated with AAPH at 10 mM to induce oxidative stress and incubated overnight. The TBARS assay was then utilized to evaluate the anti-oxidant potential of the compound in the RPE cells at various concentrations.

[3] = tested on: Primary retinal pigment endothelial cell line (RPE); assay: Protection from AAPH induced oxidative stress in RPE cells (viability, cell titer glo 2.0); type: cell-based; conditions: 1.25 μM NWD-19 pre-treatment overnight, AAPH 10 mM overnight
Experimental: Primary retinal pigment endothelial cell line (RPE) were plated in appropriate growth medium in a 96 well plate overnight (16-24 hrs). Once 80-90% confluence was achieved the cells were then treated with NWD-19 at a concentration range of 0.039 uM to 1.25 μM. Appropriate blanks were also added and the plate was incubated overnight in a CO2 (95%)/O2 (5%) incubator at 37° C. temperature. Following incubation all wells were treated with AAPH at 10 mM to induce oxidative stress and incubated overnight. After incubation the plate was assayed for viability using cell titer glo 2.0 assay (Promega).

CT-26 cells = assay: Cytotoxicity in CT-26 cancer cell line (cell titer glo 2.0); type: cell-based; conditions: Mus musculus, CT26; overnight incubation, triplicate, 6 concentrations; read-out: EC50 (percent survival, CT-26 cells)
Experimental: The CT-26 cell lines were plated at the appropriate pre-determined plating density in the 96 well plate and allowed to attach for about 16 hrs. After a suitable confluence was ensured (about 70-80%) the media was replaced with fresh media and the test compound was added to the plate in triplicate at 6 concentrations. Appropriate vehicle and positive controls were also added, and the plate was incubated overnight in a CO2 (95%)/O2 (5%) incubator at 37° C. temperature. After incubation the plate was assayed for cytotoxicity using cell titer glo 2.0 assay (Promega) on the BioTek Synergy HT plate reader (Gen5 software).

SMILES | IC50 [1] [µM] | condition of the eyes (corneal lesions, dry eye fluorescein scoring) compared to vehicle control eyes [2] | anti-oxidant activity in TBARS assay (malonaldehyde equivalents) (RPE primary cells) | cell survival after AAPH induced oxidative stress [3] [%] | EC50 (CT-26 cells) [µM]
CC1=NN(c2ccccc2)C(=O)C1CCCC[P+](c1ccccc1)(c1ccccc1)c1ccccc1 (stereo not shown) [NWD-15, (4-(3-methyl-5-oxo-1-phenyl-4,5-dihydro-1H-2l4-pyrazol-4-yl)butyl) triphenyl-phosphonium bromide] | 2.3 | – | – | – | –
O=c1cc(CCCC[P+](c2ccccc2)(c2ccccc2)c2ccccc2)[nH]n1-c1ccccc1 [NWD-14, (4-(5-oxo-1-phenyl-2,5-dihydro-1H-pyrazol-3-yl)butyl) triphenyl phosphonium bromide] | 2.8 | – | – | – | –
CC1=NN(c2ccccc2)C(=O)C1CCCCCCCCCC[P+](c1ccccc1)(c1ccccc1)c1ccccc1.[Br-] (stereo not shown) [NWD-19, (10-(3-methyl-5-oxo-1-phenyl-4,5-dihydro-1H-pyrazol-4-yl)decyl) triphenyl phosphonium bromide] | 2.1 | masked improvement | significant anti-oxidant activity | ~50 | 9.6
